# Data reported in DBAASP.
# Experiments:
# Test in all cases: ≥ marks a high value that may be exact or a test limit, other limits are often not marked, values filed in µg/mL are converted to µM
# Bacillus anthracis = tested on: Bacillus anthracis
# Bacillus cereus = tested on: Bacillus cereus
# Escherichia coli = tested on: Escherichia coli
# Staphylococcus aureus = tested on: Staphylococcus aureus
# Bacillus subtilis = tested on: Bacillus subtilis
# [1] = tested on: Candida albicans ATCC 90028
# Enterobacter cloacae = tested on: Enterobacter cloacae
# [2] = tested on: Escherichia coli ATCC 25922
# [3] = tested on: Pseudomonas aeruginosa ATCC 27853
# Pseudomonas aeruginosa = tested on: Pseudomonas aeruginosa
# [4] = tested on: Salmonella enterica subsp. enterica serovar Typhi
# [5] = tested on: Staphylococcus aureus ATCC 25923
# [6] = tested on: Candida albicans ATCC 2002
# [7] = tested on: Staphylococcus aureus ATCC 2592
# Enterococcus faecalis = tested on: Enterococcus faecalis
# Leuconostoc lactis = tested on: Leuconostoc lactis
# Listeria innocua = tested on: Listeria innocua
# Micrococcus luteus = tested on: Micrococcus luteus
# Pasteurella multocida = tested on: Pasteurella multocida
# [8] = tested on: Staphylococcus aureus ATCC 29213
# [9] = tested on: Staphylococcus epidermidis
# Streptococcus uberis = tested on: Streptococcus uberis
# Micrococcus luteus A270 = tested on: Micrococcus luteus A270
# Escherichia coli K-12 = tested on: Escherichia coli K-12
# Klebsiella pneumoniae = tested on: Klebsiella pneumoniae
# [10] = tested on: Pseudomonas aeruginosa PAO1
# [11] = tested on: Staphylococcus aureus NCTC 8325-4
# [12] = tested on: Candida albicans NCPF 1467
# [13] = tested on: Escherichia coli NCTC 10418
# [14] = tested on: Staphylococcus aureus NCTC 10788
# [15] = tested on: Salmonella enterica subsp. enterica serovar Enteritidis
SMILES,MIC (Bacillus cereus),MIC (Escherichia coli),MIC (Staphylococcus aureus),MIC (Bacillus subtilis),MIC [1],MIC (Enterobacter cloacae),MIC [3],MIC (Pseudomonas aeruginosa),MIC [4],MIC [5],MIC (Listeria innocua),also measured
CC(C)C[C@H](NC(=O)[C@H](CCCCN)NC(=O)[C@H](Cc1ccccc1)NC(=O)[C@H](CC(C)C)NC(=O)[C@@H](NC(=O)[C@@H]1CCCN1C(=O)[C@@H](N)CC(C)C)C(C)C)C(=O)N[C@@H](C)C(=O)N[C@@H](CO)C(=O)N[C@@H](CCCCN)C(=O)N[C@H](C(=O)N[C@@H](Cc1ccccc1)C(=O)N1CCC[C@H]1C(=O)N[C@@H](C)C(=O)N[C@H](C(=O)N[C@@H](Cc1ccccc1)C(=O)N[C@@H](CO)C(=O)N[C@@H](CO)C(=O)N[C@@H](CC(C)C)C(=O)N[C@@H](CCCCN)C(=O)O)C(C)C)C(C)C [LPVLFKLASKVFPAVFSSLK],29.2 µM,117 µM,58.4 µM,–,–,–,–,–,–,–,–,MIC (Bacillus anthracis): ≥ 58.4 µM
CC(C)C[C@H](NC(=O)[C@H](CCCCN)NC(=O)[C@H](CCCN=C(N)N)NC(=O)[C@H](Cc1ccccc1)NC(=O)[C@H](Cc1ccccc1)NC(=O)[C@H](CCCCN)NC(=O)[C@H](CCCCN)NC(=O)[C@H](Cc1ccccc1)NC(=O)[C@H](CCCN=C(N)N)NC(=O)[C@H](CCCCN)NC(=O)[C@@H](N)C(C)C)C(=O)N[C@@H](CCCCN)C(=O)N[C@@H](CCCCN)C(=O)N[C@@H](CO)C(=O)N[C@H](C(=O)N[C@@H](CCCCN)C(N)=O)C(C)C [VKRFKKFFRKLKKSVK],–,31 µM,61.9 µM,31 µM,31 µM,31 µM,31 µM,7.74 µM,1.93 µM,0.967 µM,–,MIC [2]: 1.93 µM
CC(C)C[C@H](NC(=O)[C@H](CCCCN)NC(=O)[C@H](CCCN=C(N)N)NC(=O)[C@H](Cc1ccccc1)NC(=O)[C@H](Cc1ccccc1)NC(=O)[C@H](CCCCN)NC(=O)[C@H](CCCCN)NC(=O)[C@H](Cc1ccccc1)NC(=O)[C@H](CCCN=C(N)N)NC(=O)[C@H](CCCCN)NC(=O)[C@@H](N)C(C)C)C(=O)N[C@@H](CCCCN)C(=O)N[C@@H](CCCCN)C(=O)N[C@@H](CO)C(=O)N[C@H](C(N)=O)C(C)C [VKRFKKFFRKLKKSV],–,8.25 µM,8.25 µM,≥ 38.7 µM,≥ 33 µM,4.12 µM,16.5 µM,8.25 µM,1.03 µM,0.516 µM,–,MIC [6]: 9.67 µM; MIC [7]: ≥ 51.6 µM
CC[C@H](C)[C@H](NC(=O)[C@@H](NC(=O)[C@@H]1CCCN1C(=O)[C@H](C)NC(=O)[C@@H](NC(=O)[C@H](Cc1cnc[nH]1)NC(=O)[C@@H]1CCCN1C(=O)[C@H](CC(C)C)NC(=O)[C@H](CC(C)C)NC(=O)[C@H](Cc1cnc[nH]1)NC(=O)[C@H](CCCCN)NC(=O)[C@H](C)NC(=O)[C@@H](NC(=O)[C@H](CO)NC(=O)CNC(=O)[C@H](CC(C)C)NC(=O)[C@@H](NC(=O)[C@H](CO)NC(=O)[C@H](Cc1ccccc1)NC(=O)[C@H](CC(C)C)NC(=O)CN)C(C)C)C(C)C)C(C)C)[C@@H](C)CC)C(=O)N[C@@H](C)C(=O)N[C@@H](CCC(=O)O)C(=O)N[C@@H](CCCCN)C(=O)N[C@@H](CC(C)C)C(N)=O [GLFSVLGSVAKHLLPHVAPIIAEKL],≥ 38.3 µM,> 38.3 µM,–,–,–,≥ 38.3 µM,–,> 38.3 µM,–,19.2 µM,9.58 µM,MIC (Enterococcus faecalis): ≥ 38.3 µM; MIC (Leuconostoc lactis): 1.15 µM; MIC (Micrococcus luteus): 4.6 µM; MIC (Pasteurella multocida): 9.58 µM; MIC [8]: 4.6 µM; MIC [9]: 4.6 µM; MIC (Streptococcus uberis): 9.58 µM
CC(C)C[C@H](NC(=O)[C@H](CO)NC(=O)[C@H](Cc1cnc[nH]1)NC(=O)[C@H](CO)NC(=O)[C@H](CC(C)C)NC(=O)[C@@H](N)CC(C)C)C(=O)O [LLSHSL],–,46.8 µM,–,–,–,–,–,–,–,–,≥ 187 µM,MIC (Micrococcus luteus A270): ≥ 46.8 µM
CC(C)C[C@H](NC(=O)[C@H](CC(C)C)NC(=O)[C@H](CCCCN)NC(=O)[C@H](CCCCN)NC(=O)[C@H](CC(C)C)NC(=O)[C@H](CC(C)C)NC(=O)[C@H](CCCCN)NC(=O)[C@H](CCCCN)NC(=O)[C@@H](N)CC(C)C)C(=O)N[C@@H](CCCCN)C(N)=O [LKKLLKKLLK],–,–,–,–,–,–,–,–,–,–,–,MIC (Escherichia coli K-12): 31.3 µM; MIC (Klebsiella pneumoniae): > 500 µM; MIC [10]: 62.5 µM; MIC [11]: ≥ 500 µM
CC[C@H](C)[C@H](NC(=O)[C@H](C)NC(=O)[C@H](CO)NC(=O)[C@@H]1CCCN1C(=O)[C@@H](NC(=O)[C@H](CC(C)C)NC(=O)[C@H](CO)NC(=O)[C@H](Cc1ccccc1)NC(=O)[C@H](CC(C)C)NC(=O)[C@@H](N)Cc1ccccc1)[C@@H](C)CC)C(=O)N[C@@H](C)C(=O)NCC(=O)N[C@@H](CC(C)C)C(=O)N[C@H](C(=O)N[C@@H](CO)C(=O)N[C@@H](C)C(=O)N[C@H](C(=O)N[C@@H](CCCN=C(N)N)C(=O)N[C@@H](CC(N)=O)C(N)=O)[C@@H](C)CC)C(C)C [FLFSLIPSAIAGLVSAIRN],–,–,–,–,–,–,–,–,–,–,–,MIC [12]: 16.1 µM; MIC [13]: ≥ 257 µM; MIC [14]: 8.04 µM
CC[C@H](C)[C@H](NC(=O)[C@H](CC(C)C)NC(=O)[C@H](CCCCN)NC(=O)[C@H](CCSC)NC(=O)[C@@H](NC(=O)[C@H](C)NC(=O)[C@H](C)NC(=O)[C@H](CCCN=C(N)N)NC(=O)[C@H](CCCCN)NC(=O)[C@H](Cc1ccccc1)NC(=O)[C@H](Cc1ccccc1)NC(=O)[C@H](CC(C)C)NC(=O)[C@@H](NC(=O)[C@H](C)NC(=O)CNC(=O)[C@@H](NC(=O)[C@H](CO)NC(=O)[C@@H]1CCCN1C(=O)[C@@H](NC(=O)[C@@H](N)CO)C(C)C)C(C)C)C(C)C)C(C)C)C(=O)O [SVPSVGAVLFFKRAAVMKLI],≥ 120 µM,> 120 µM,> 120 µM,–,–,–,–,–,–,–,–,MIC (Bacillus anthracis): ≥ 120 µM
CC(C)C[C@H](NC(=O)[C@@H](N)Cc1ccccc1)C(=O)N[C@@H](CO)C(=O)N[C@@H](Cc1ccccc1)C(=O)N1CCC[C@H]1C(=O)N[C@H](C(=O)N[C@H](C(=O)N[C@@H](CCCCN)C(=O)N[C@H](C(=O)N[C@@H](Cc1ccc(O)cc1)C(=O)N[C@@H](Cc1ccccc1)C(=O)N1CCC[C@H]1C(=O)N[C@@H](Cc1cnc[nH]1)C(=O)N[C@@H](Cc1ccccc1)C(=O)O)[C@@H](C)O)[C@@H](C)O)[C@@H](C)O [FLSFPTTKTYFPHF],–,9 µM,–,–,–,–,–,–,–,–,1 µM,MIC (Micrococcus luteus A270): 5 µM; MIC [15]: 9 µM
CC(C)C[C@H](NC(=O)[C@H](CCCCN)NC(=O)[C@H](CCCN=C(N)N)NC(=O)[C@H](Cc1ccccc1)NC(=O)[C@H](Cc1ccccc1)NC(=O)[C@H](CCCCN)NC(=O)[C@H](CCCCN)NC(=O)[C@H](Cc1ccccc1)NC(=O)[C@H](CCCN=C(N)N)NC(=O)[C@H](CCCCN)NC(=O)[C@@H](N)C(C)C)C(=O)N[C@@H](CCCCN)C(=O)N[C@@H](CCCCN)C(=O)N[C@@H](CO)C(=O)N[C@H](C(=O)N[C@@H](CCCCN)C(=O)N[C@@H](CCCCN)C(N)=O)C(C)C [VKRFKKFFRKLKKSVKK],–,29.1 µM,58.3 µM,29.1 µM,29.1 µM,≥ 58.3 µM,29.1 µM,7.29 µM,1.82 µM,0.911 µM,–,MIC [2]: 3.64 µM
